Data taken from US20220369639A1, “Fungicide Mixtures” (LANXESS Deutschland GmbH, priority 2019, published 2022).
Read-outs that look alike come from different tables or passages of the source.

Assays:
Type in all cases: cell-based
[1] = tested on: Fungi Mix composed of the standard ASTM G 21-09 species; assay: Gypsum board mould resistance, ASTM G 21-09 (core protection); settings: for Observed growth rating, Fungi Mix: facing papers not treated, 4 weeks at 28-30° C.
Excerpt: The fungicide mixtures as of the present invention and of the comparison example to be tested were made as follows: The respective actives were mixed in their respective weight ratio (see table 2) together with water and 1 wt. % dispersant Tristyrylphenol ethoxylate (in form of Soprophor® S 25), as thickener 0.1 wt. % of Xanthan gum and 1 wt. % wetting agent non-ionic EO/PO-Copolymer (in form of Pluronic 127 F), where the wt. % are based on the entire mixture and were homogenized with a high speed mixer (IKA Ultra Turrax Labor Dispergator) to give an aqueous suspension having a viscosity measured in accordance with CIPAC 192 method of 500-600 mPas and a particle size of the biocides of smaller than 30 μm measured in accordance with the CIPAC 187 method.
For examination of the antifungal performance of the inventive mixtures the various mixtures prepared above were tested. The testing directly made in gypsum boards provides realistic and practically relevant data for evaluation. To achieve such data, gypsum boards were produced in the laboratory. For this purpose, a typical slurry recipe as given below for board production is used.
The gypsum slurry is formed by mixing the dry components and the wet components together. The slurry is then mixed to achieve a homogeneous consistency. The fungicide mixtures as prepared above are then incorporated into the wet gypsum slurry respectively (total amount of actives in ppm see table 2) by adding and thoroughly mixing. For sandwiching the gypsum core, untreated cardboard (without fungicide) with a grammage of appr. 180 g/m^2 was used and after assembly of the plate the hand sheets are dried.
The mould resistance of the gypsum board samples was evaluated according to the test method ASTM G 21-09. Following to this method, the manufactured gypsum boards as described above and after having been cut to an adequate size are placed on an agarplate and superficially are spoiled with fungal spores for a determined period of time of at the most 4 weeks. The respective total amount of actives in ppm based in gypsum/plaster ([…]) can be seen in the table.
Spore suspensions are produced for each fungi (spore concentrations of approximately 10^6/ml). Organisms which are included in ASTM G 21 comprise Aspergillus niger (ATCC 9642), Aureobasidium pullulans (ATCC 15233) Chaetomium globosum (ATCC 6205), Gliocladium virens (ATCC 6459) and Penicillium pinophilium (ATCC 11797) (as pure culture but also as mixed inoculum), however any other fungi species known to be able to grow in gypsum boards may be used in addition or instead. Mineral agar (according to ASTM G21 of 2009) was used as growth media in the agar plates. Before inoculation the gypsum board hand sheets are cut into pieces of appr. 5×5 cm.
For every concentration level, 3 test pieces are used in the test. Each sample is placed in a separate petri dish and then inoculated with the fungi mixture. The samples are then incubated at 28-30° C. for 28 days. Pre-reading of the samples may be performed at approximately 10 days after inoculation. The activity of the treatments may be assessed visually, using a rating system of 0-4 for growth inhibition of fungal growth.
Results: The results as recorded after 4 weeks testing at 28-30° C. according to the requirements of test method ASTM G 21 are summarized in table 2.

[2] = tested on: Fusarium solani; assay: Minimum Inhibitory Concentration (MIC) on nutrient agar petri dishes
Excerpt: (§1) The term synergism is used when the action of a combination of antimicrobial substances is being evaluated.
(§2) The synergism found for the mixtures according to the invention can be determined via the following mathematical mathematical formula (cf. F. C. Kull, P. C. Elisman, H. D.
(§3) Qa=amount of component A in the active substance mixture which achieves the desired effect, i. e. no microbial growth,
(§4) QA=amount of component A which, when used alone, suppresses the growth of the microorganisms,
(§5) Qb=amount of component B in the active substance mixture which suppresses the growth of the microorganisms,
(§6) QB=amount of component B which, when used alone, suppresses the growth of the microorganisms
(§7) If the sum of the ratios for a mixture Qa/QA+Qb/QB=1, additivity is indicated; if it is <1, synergism has occurred; a value of >1 is indicative of antagonism.
(§8) To determine the antimicrobial efficacy and synergy of active ingredients mixtures, the Minimum Inhibitory Concentration (MIC) of the active substances and their respective combinations were determined. The Minimum Inhibitory
(§9) Concentration of a given antimicrobial compound or mixture is the lowest concentration expressed in […] (ppm) that under defined in vitro conditions inhibits the growth of a given micro-organism (for example bacteria, mould fungi, yeasts). The growth of the microorganisms is observed on petri dishes containing a defined nutrient agar. In the case of fungi, typical strains according to this test design for example would be species like those as indicated in tables 1a) and 1b)

[3] = tested on: Aspergillus niger; assay: as above
Excerpt: as §1, §2, §3, §4, §5, §6, §7, §8, §9

| Structure (SMILES) | Observed growth rating, Fungi Mix ([1]; 25 ppm on dry stucco in gypsum core) | Observed growth rating, Fungi Mix ([1]; 50 ppm on dry stucco in gypsum core) | Observed growth rating, Fungi Mix ([1]; 100 ppm on dry stucco in gypsum core) | Observed growth rating, Fungi Mix ([1]; 200 ppm on dry stucco in gypsum core) | Observed growth rating, Fungi Mix ([1]; 300 ppm on dry stucco in gypsum core) | Control of fungi growth on gypsum board (interpretation of Table 2) ([1]; tested concentration range 25-300 ppm, comparison with TBZ/PYM mixtures) | MIC ([2]; read-out: MIC) [µg/mL] | MIC [3] [ppm] | MIC ([3]; read-out: MIC) [µg/mL] | MIC [2] [ppm] |
| --- | --- | --- | --- | --- | --- | --- | --- | --- | --- | --- |
| c1ccc2[nH]c(-c3cscn3)nc2c1 [TBZ, thiabendazole] | 4 (Heavy growth (60% to complete coverage)) | 4 (Heavy growth (60% to complete coverage)) | 4 (Heavy growth (60% to complete coverage)) | 4 (Heavy growth (60% to complete coverage)) | 3 (Medium growth (30 to 60%)) | not good enough | 250 | – | – | – |
| Cc1cc(C)nc(Nc2ccccc2)n1 [PYM, pyrimethanil] | – | – | – | – | – | – | 1000 | 500 | 250 | 1501 |
